Values of other authors as cited in patent publication US20150258192A1, “COMPOSITIONS AND METHODS FOR PREVENTING OR TREATING CHRONIC LUNG ALLOGRAFT DYSFUNCTION (CLAD) AND IDIOPATHIC PULMONARY FIBROSIS (IPF)” (priority 2014, published 2015).

How the values were obtained:
PKA = conditions: 1 μM; cited from earlier work
CaMKIV = CaMKIV (Homo sapiens, UniProt Q16566); conditions: 1 μM; cited from earlier work
[1] = system: Ca^2+/calmodulin-dependent protein kinase II (CaMKII); conditions: cited from earlier work
PKC = conditions: 1 μM; cited from earlier work

Chain of CaMKIV (Q16566 whole entry, species assumed): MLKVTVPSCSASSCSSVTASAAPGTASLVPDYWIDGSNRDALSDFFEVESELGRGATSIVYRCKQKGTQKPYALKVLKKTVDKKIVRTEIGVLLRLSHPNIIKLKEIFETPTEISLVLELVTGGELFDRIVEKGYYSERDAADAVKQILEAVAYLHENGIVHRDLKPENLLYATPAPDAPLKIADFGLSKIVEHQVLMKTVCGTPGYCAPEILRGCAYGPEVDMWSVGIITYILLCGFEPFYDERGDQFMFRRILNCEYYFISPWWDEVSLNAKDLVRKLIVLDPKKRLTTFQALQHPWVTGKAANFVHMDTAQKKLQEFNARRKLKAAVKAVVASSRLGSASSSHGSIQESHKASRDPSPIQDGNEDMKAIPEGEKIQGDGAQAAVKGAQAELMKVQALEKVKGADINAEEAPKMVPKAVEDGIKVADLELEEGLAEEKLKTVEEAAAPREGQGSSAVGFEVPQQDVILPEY

autocamtide-2 related inhibitory peptide [AIP]
PKA activity (PKA): not affected
CaMKIV activity (CaMKIV): not affected
CaMKII activity ([1]; 1 μM): inhibited completely
IC50 [1]: 100 nM
PKC activity (PKC): not affected
